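96-well plates; 48 h exposure; 5 concentrations. Endpoints by linear interpolation between flanking doses. Not reached: highest tested concentration assigned. The concentration for 50% growth inhibition is given as GI50.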 Activity calls are given as the source filed them. Cut-off read from the data, not from the text of the source: active = GI50 up to about 1.1 µM and inactive = higher.
Experiments:
Experiment in all cases: growth of human tumour cells (NCI), 48 h
NCI-H23 = test system: NCI-H23
MOLT-4 = test system: MOLT-4
786-0 = test system: 786-0
LOX IMVI = test system: LOX IMVI
SK-MEL-2 = test system: SK-MEL-2
SN12C = test system: SN12C
HOP-62 = test system: HOP-62
MDA-MB-435 = test system: MDA-MB-435
KM12 = test system: KM12
UACC-62 = test system: UACC-62
UO-31 = test system: UO-31
HL-60 = test system: HL-60
SW-620 = test system: SW-620
OVCAR-4 = test system: OVCAR-4
U-251 = test system: U-251
NCI-H226 = test system: NCI-H226
SK-MEL-28 = test system: SK-MEL-28
SF-295 = test system: SF-295
Malme-3M = test system: Malme-3M
NCI-H460 = test system: NCI-H460

Row | SMILES | GI50 (NCI-H23) | GI50 (MOLT-4) | GI50 (786-0) | GI50 (LOX IMVI) | GI50 (SK-MEL-2) | GI50 (SN12C) | GI50 (HOP-62) | GI50 (MDA-MB-435) | GI50 (KM12) | GI50 (UACC-62) | GI50 (UO-31) | GI50 (HL-60) | GI50 (SW-620) | GI50 (OVCAR-4) | GI50 (U-251) | GI50 (NCI-H226) | GI50 (SK-MEL-28) | GI50 (SF-295) | GI50 (Malme-3M) | GI50 (NCI-H460)
1 | CN1CC=C(c2cccn2C)CC1 | > 100 µM (inactive) | > 100 µM (inactive) | > 100 µM (inactive) | > 100 µM (inactive) | > 100 µM (inactive) | > 100 µM (inactive) | > 100 µM (inactive) | > 100 µM (inactive) | > 100 µM (inactive) | > 100 µM (inactive) | > 100 µM (inactive) | > 100 µM (inactive) | > 100 µM (inactive) | > 100 µM (inactive) | > 100 µM (inactive) | > 100 µM (inactive) | > 100 µM (inactive) | > 100 µM (inactive) | > 100 µM (inactive) | 
2 | CCOC(=O)C[C@@H]1C2(C=C[C@@]13CO3)OCC(C)(C)CO2 | > 100 µM (inactive) | > 100 µM (inactive) |  | > 100 µM (inactive) | > 100 µM (inactive) | > 100 µM (inactive) | > 100 µM (inactive) | > 100 µM (inactive) |  | > 100 µM (inactive) | > 100 µM (inactive) | > 100 µM (inactive) | > 100 µM (inactive) | 8.2 µM (inactive) | > 100 µM (inactive) | > 100 µM (inactive) | > 100 µM (inactive) | > 100 µM (inactive) | > 100 µM (inactive) | > 100 µM (inactive)
3 | O=Cc1cn(CCCCCCCCn2cc(C=O)c3ccccc32)c2ccccc12 | 2.19 µM (inactive) | 6.37 µM (inactive) |  | 7.57 µM (inactive) | > 10 µM (inactive) | > 10 µM (inactive) | > 10 µM (inactive) | > 10 µM (inactive) | > 10 µM (inactive) | > 10 µM (inactive) | > 10 µM (inactive) | 5.46 µM (inactive) | > 10 µM (inactive) | > 10 µM (inactive) | > 10 µM (inactive) | 8.24 µM (inactive) | > 10 µM (inactive) | 6.41 µM (inactive) | > 10 µM (inactive) | 0.561 µM (active)
4 | Cc1ccc2c(O)cc(-c3cc(C)sc3C)nc2n1 | 2.25 µM (inactive) | 4.14 µM (inactive) | 3.93 µM (inactive) | 5.08 µM (inactive) |  | 6.44 µM (inactive) | 6.07 µM (inactive) | 0.351 µM (active) | 3.3 µM (inactive) | 4.88 µM (inactive) | 4.29 µM (inactive) | 1.53 µM (inactive) | 1.67 µM (inactive) | > 36.6 µM (inactive) | 3.69 µM (inactive) | 2.38 µM (inactive) | 5.53 µM (inactive) | 1.94 µM (inactive) | 3.56 µM (inactive) | 4.21 µM (inactive)
5 | COC(CN(C(C)=O)C1CCC2(SCCS2)c2[nH]c3ccccc3c21)OC (stereo not drawn) | > 100 µM (inactive) | 60.8 µM (inactive) | > 100 µM (inactive) | 0.0422 µM (active) | > 100 µM (inactive) | > 100 µM (inactive) | > 100 µM (inactive) | > 100 µM (inactive) | > 100 µM (inactive) |  | > 100 µM (inactive) | 89.9 µM (inactive) | > 100 µM (inactive) | 62.7 µM (inactive) | > 100 µM (inactive) | > 100 µM (inactive) | > 100 µM (inactive) | 0.207 µM (active) | > 100 µM (inactive) | > 100 µM (inactive)
6 | O=c1cnn(C2OC(CO)C(O)C2O)c(=S)[nH]1 (stereo not drawn) | > 94 µM (inactive) | 0.938 µM (active) |  | 1.24 µM (inactive) | 20.4 µM (inactive) | > 82 µM (inactive) | > 63.7 µM (inactive) | > 100 µM (inactive) | 22.3 µM (inactive) | 19.4 µM (inactive) | 28.2 µM (inactive) | 2.05 µM (inactive) | 5.21 µM (inactive) | > 100 µM (inactive) | 3.03 µM (inactive) | > 100 µM (inactive) | > 100 µM (inactive) | 11.9 µM (inactive) | > 77.8 µM (inactive) | 0.316 µM (active)
7 | O=C1Cc2c(-c3ccccc3)cc(-c3cccc(Cl)c3)nc2-c2ccccc2N1 | 5.24 µM (inactive) | 20.1 µM (inactive) |  | 2.04 µM (inactive) | 8 µM (inactive) | 1.26 µM (inactive) | 1.38 µM (inactive) | 8.91 µM (inactive) | 5.02 µM (inactive) | 3.03 µM (inactive) | 3.14 µM (inactive) | 38.7 µM (inactive) | 3.91 µM (inactive) | 1.5 µM (inactive) | 1.75 µM (inactive) | 4.63 µM (inactive) | 3.9 µM (inactive) | 3.56 µM (inactive) | 3.82 µM (inactive) | 1.2 µM (inactive)
8 | COC(=O)C1(c2ccc(N(C)C)cc2OC)CCCN(C(=O)Oc2ccccc2[N+](=O)[O-])CCc2c1[nH]c1ccccc21 (stereo not drawn) | > 100 µM (inactive) | 16.9 µM (inactive) |  | > 100 µM (inactive) | > 100 µM (inactive) | > 100 µM (inactive) | > 100 µM (inactive) | > 100 µM (inactive) | > 100 µM (inactive) | > 100 µM (inactive) | 51.4 µM (inactive) | 22.9 µM (inactive) | > 100 µM (inactive) |  | > 100 µM (inactive) | > 100 µM (inactive) | > 100 µM (inactive) | > 100 µM (inactive) | > 100 µM (inactive) | > 100 µM (inactive)
9 | CC(=O)O[C@H]1[C@@H]2OC(=O)[C@@](O)(CC3CCCO3)[C@@H]2CC(=O)[C@](C)(O)CC/C=C(\C)CCC[C@@H]1C (stereo partly drawn) |  |  | 37.9 µM (inactive) | 20.8 µM (inactive) | 57.5 µM (inactive) | 30.4 µM (inactive) |  | 31.7 µM (inactive) | 67.6 µM (inactive) | 67.3 µM (inactive) | 61.8 µM (inactive) | 21.5 µM (inactive) | 22.5 µM (inactive) | 52.8 µM (inactive) | 69.8 µM (inactive) | 15.6 µM (inactive) | 20.3 µM (inactive) | 77.3 µM (inactive) | 41.2 µM (inactive) | > 100 µM (inactive)
10 | COc1cc(CCCl)c(CC2=NCCc3cc(OC)c(OC)cc32)cc1OC | > 100 µM (inactive) | > 100 µM (inactive) |  | 21.1 µM (inactive) | > 100 µM (inactive) | 80.9 µM (inactive) | 20.8 µM (inactive) | 89.9 µM (inactive) | 71.1 µM (inactive) | 43.3 µM (inactive) | 69.3 µM (inactive) | 4.41 µM (inactive) | 85.5 µM (inactive) | > 100 µM (inactive) | > 100 µM (inactive) | > 100 µM (inactive) | > 100 µM (inactive) | 19.8 µM (inactive) |  | > 100 µM (inactive)
11 | COC(=O)c1ccc(NCC2=C(Br)C(=O)C=CC2=O)cc1Cl | 21 µM (inactive) | 17.7 µM (inactive) | 13.3 µM (inactive) | 14.9 µM (inactive) | 20.2 µM (inactive) | 16.5 µM (inactive) |  | 19.2 µM (inactive) | 34.5 µM (inactive) | 18.8 µM (inactive) | 16.4 µM (inactive) | 3.68 µM (inactive) | 16 µM (inactive) | 24.4 µM (inactive) | 22.8 µM (inactive) | 74.8 µM (inactive) | 18.8 µM (inactive) | 40.1 µM (inactive) | 15.2 µM (inactive) | 17.2 µM (inactive)
12 | CCP(=O)(CC)C(Cl)Cl | > 100 µM (inactive) | > 100 µM (inactive) |  | > 100 µM (inactive) | > 100 µM (inactive) | > 100 µM (inactive) | > 100 µM (inactive) | > 100 µM (inactive) |  |  | > 100 µM (inactive) | > 100 µM (inactive) | > 100 µM (inactive) | > 100 µM (inactive) | > 100 µM (inactive) | > 100 µM (inactive) | > 100 µM (inactive) | > 100 µM (inactive) |  | > 100 µM (inactive)
13 | COP(=O)(OC)[C@H](O)[C@H]1C[C@@H]1c1ccccc1 | > 100 µM (inactive) | > 100 µM (inactive) |  | > 100 µM (inactive) | > 100 µM (inactive) |  | > 100 µM (inactive) | > 100 µM (inactive) | > 100 µM (inactive) | > 100 µM (inactive) | > 100 µM (inactive) | > 100 µM (inactive) | > 100 µM (inactive) | > 100 µM (inactive) | > 100 µM (inactive) | > 100 µM (inactive) | > 100 µM (inactive) | > 100 µM (inactive) | > 100 µM (inactive) | > 100 µM (inactive)
14 | CC(=O)OC(C(=O)O)C(OC(C)=O)C(OC(C)=O)C(OC(C)=O)C(=O)O (stereo not drawn) | > 100 µM (inactive) | > 100 µM (inactive) |  | > 100 µM (inactive) | > 100 µM (inactive) | > 100 µM (inactive) | > 100 µM (inactive) | > 100 µM (inactive) | > 100 µM (inactive) | > 100 µM (inactive) | > 100 µM (inactive) | > 100 µM (inactive) | > 100 µM (inactive) |  | > 100 µM (inactive) | > 100 µM (inactive) | > 100 µM (inactive) | > 100 µM (inactive) | > 100 µM (inactive) | > 100 µM (inactive)
15 | CC(=O)N1C(Nc2cnc3ccccc3c2)CCN1c1ccccc1 (stereo not drawn) | > 10 µM (inactive) | > 10 µM (inactive) | > 10 µM (inactive) | 5.65 µM (inactive) | > 10 µM (inactive) | > 10 µM (inactive) | > 10 µM (inactive) | > 10 µM (inactive) |  |  | > 10 µM (inactive) | 6.37 µM (inactive) | 4.78 µM (inactive) | > 10 µM (inactive) |  | > 10 µM (inactive) | > 10 µM (inactive) | > 10 µM (inactive) | > 10 µM (inactive) | > 10 µM (inactive)

— ChEMBL document CHEMBL1201862, “PubChem BioAssay data set” (2004)
